# Columns and labels:
# Type in all cases: in vivo
# [1] = tested on: Alopecurus myosuroides (ALOMY); experiment: Pre-emergence herbicidal activity, glasshouse pot test; conditions: rate 500 g/ha, evaluated after 20 days; for pest or weed control at 500 g/ha: Alopecurus myosuroides, 480 h, read-out: Pre-emergence activity, ALOMY (100=total damage to plant; 0=no damage to plant)
# Summary of the method: (§1)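 Damage was rated visually 20 days after treatment, from 0 (none) to 100 (plant killed). Treatment was a pre-emergence spray of aqueous formulated compound applied to pots sown one day earlier in sterilised soil, with plants then kept under optimum greenhouse conditions.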
# Avena fatua (AVEFA) [2] = experiment: as above; conditions: rate 500 g/ha, evaluated after 20 days; for pest or weed control at 500 g/ha: Avena fatua, 480 h, read-out: Pre-emergence activity, AVEFA (100=total damage to plant; 0=no damage to plant)
# Summary of the method: as §1
# [3] = tested on: Digitaria sanguinalis (DIGSA); experiment: as above; conditions: rate 500 g/ha, evaluated after 20 days; for pest or weed control at 500 g/ha: Digitaria sanguinalis, 480 h, read-out: Pre-emergence activity, DIGSA (100=total damage to plant; 0=no damage to plant)
# Summary of the method: as §1
# [4] = tested on: Echinochloa crus-galli (ECHCG); experiment: as above; conditions: rate 500 g/ha, evaluated after 20 days; for pest or weed control at 500 g/ha: Echinochloa crus-galli, 480 h, read-out: Pre-emergence activity, ECHCG (100=total damage to plant; 0=no damage to plant)
# Summary of the method: as §1
# Lolium perenne (LOLPE) [5] = experiment: as above; conditions: rate 500 g/ha, evaluated after 20 days; for pest or weed control at 500 g/ha: Lolium perenne, 480 h, read-out: Pre-emergence activity, LOLPE (100=total damage to plant; 0=no damage to plant)
# Summary of the method: as §1
# Setaria faberi (SETFA) [6] = experiment: as above; conditions: rate 500 g/ha, evaluated after 20 days; for pest or weed control at 500 g/ha: Setaria faberi, 480 h, read-out: Pre-emergence activity, SETFA (100=total damage to plant; 0=no damage to plant)
# Summary of the method: as §1
# [7] = tested on: Alopecurus myosuroides (ALOMY); experiment: Post-emergence herbicidal activity, glasshouse pot test; conditions: evaluated after 14 or 15 days; for pest or weed control at 125 g/ha / pest or weed control at 500 g/ha: Alopecurus myosuroides, read-out: Post-emergence activity, ALOMY (100=total damage to plant; 0=no damage to plant); for pest or weed control at 125 g/ha: rate 125 g/ha
# Summary of the method: (§2)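 Foliar application to ten-day-old pot-grown seedlings; formulation: acetone plus solvent/surfactant blend (Emulsogen EL, NMP, DPGME, X-77), diluted in water. Scoring 14/15 d post-spray, 0–100% damage.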
# Avena fatua (AVEFA) [8] = experiment: as above; conditions: evaluated after 14 or 15 days; for pest or weed control at 125 g/ha / pest or weed control at 500 g/ha: Avena fatua, read-out: Post-emergence activity, AVEFA (100=total damage to plant; 0=no damage to plant); for pest or weed control at 125 g/ha: rate 125 g/ha
# Summary of the method: as §2
# [9] = tested on: Digitaria sanguinalis (DIGSA); experiment: as above; conditions: evaluated after 14 or 15 days; for pest or weed control at 125 g/ha / pest or weed control at 500 g/ha: Digitaria sanguinalis, read-out: Post-emergence activity, DIGSA (100=total damage to plant; 0=no damage to plant); for pest or weed control at 125 g/ha: rate 125 g/ha
# Summary of the method: as §2
# [10] = tested on: Echinochloa crus-galli (ECHCG); experiment: as above; conditions: evaluated after 14 or 15 days; for pest or weed control at 125 g/ha / pest or weed control at 500 g/ha: Echinochloa crus-galli, read-out: Post-emergence activity, ECHCG (100=total damage to plant; 0=no damage to plant); for pest or weed control at 125 g/ha: rate 125 g/ha
# Summary of the method: as §2
# Lolium perenne (LOLPE) [11] = experiment: as above; conditions: evaluated after 14 or 15 days; for pest or weed control at 125 g/ha / pest or weed control at 500 g/ha: Lolium perenne, read-out: Post-emergence activity, LOLPE (100=total damage to plant; 0=no damage to plant); for pest or weed control at 125 g/ha: rate 125 g/ha
# Summary of the method: as §2
# Setaria faberi (SETFA) [12] = experiment: as above; conditions: evaluated after 14 or 15 days; for pest or weed control at 125 g/ha / pest or weed control at 500 g/ha: Setaria faberi, read-out: Post-emergence activity, SETFA (100=total damage to plant; 0=no damage to plant); for pest or weed control at 125 g/ha: rate 125 g/ha
# Summary of the method: as §2
SMILES,pest or weed control at 500 g/ha [1] [%],pest or weed control at 500 g/ha (Avena fatua (AVEFA) [2]) [%],pest or weed control at 500 g/ha [3] [%],pest or weed control at 500 g/ha [4] [%],pest or weed control at 500 g/ha (Lolium perenne (LOLPE) [5]) [%],pest or weed control at 500 g/ha (Setaria faberi (SETFA) [6]) [%],pest or weed control at 125 g/ha [7] [%],pest or weed control at 125 g/ha (Avena fatua (AVEFA) [8]) [%],pest or weed control at 125 g/ha [9] [%],pest or weed control at 125 g/ha [10] [%],pest or weed control at 125 g/ha (Lolium perenne (LOLPE) [11]) [%],pest or weed control at 125 g/ha (Setaria faberi (SETFA) [12]) [%],pest or weed control at 500 g/ha ([7]; rate 500 g/ha) [%],pest or weed control at 500 g/ha (Avena fatua (AVEFA) [8]; rate 500 g/ha) [%],pest or weed control at 500 g/ha ([9]; rate 500 g/ha) [%],pest or weed control at 500 g/ha ([10]; rate 500 g/ha) [%],pest or weed control at 500 g/ha (Lolium perenne (LOLPE) [11]; rate 500 g/ha) [%],pest or weed control at 500 g/ha (Setaria faberi (SETFA) [12]; rate 500 g/ha) [%],further results
CCc1cc(C)cc(CC)c1C1=C(OC)CC2(CCOCC2)CC1=O [Compound P32],100,100,50,20,100,10,20,0,0,0,0,0,,,,,,,
CCc1cc(C)cc(CC)c1C1=C(OC(=O)C(CC)CC)CC2(CCOCC2)CC1=O [Compound P14],100,100,100,90,100,100,80,80,70,60,80,60,,,,,,,
Cc1cc(C)c(C2=C(O)CC3(CCSCC3)CC2=O)c(C)c1 [Compound T6],20,30,10,10,0,10,,,,,,,20,10,90,80,10,80,
CCc1cc(C)cc(CC)c1C1=C(O)CC(C(C)(C)SC)CC1=O (stereo not drawn) [Compound T20],100,100,100,100,100,100,,,,,,,100,100,100,100,100,100,
CCCSC(C)CC1CC(=O)C(c2c(C)cc(C)cc2C)=C(O)C1 (stereo not drawn) [Compound T35],90,80,90,70,80,80,,,,,,,90,70,70,70,80,50,
CCC[S+]([O-])C(C)CC1CC(=O)C(c2c(CC)cc(C)cc2CC)=C(O)C1 (stereo not drawn) [Compound T37],100,90,100,100,100,100,,,,,,,90,90,80,100,90,50,
CCc1cc(C)cc(CC)c1C1=C(OC(=O)CC(C)C)CC2(CCOCC2)CC1=O [Compound P5],100,100,100,100,100,100,100,100,100,100,100,90,,,,,,,
CCc1cc(C)cc(CC)c1C1=C(OS(C)(=O)=O)CC2(CCOCC2)CC1=O [Compound P24],80,80,70,50,80,90,0,0,0,0,0,0,,,,,,,
CCc1cc(C)cc(CC)c1C1=C(O)CC(CC(C)SC(C)C)CC1=O (stereo not drawn) [Compound T38],90,70,70,70,100,60,,,,,,,90,100,70,70,90,80,
CCc1cc(C)cc(CC)c1C1=C(O)CC(CCS(C)(=O)=O)CC1=O (stereo not drawn) [Compound T31],,,,,,,,,,,,,,,,,,,"Pre-emergence activity, ALOMY (100=total damage to plant; 0=no damage to plant) [1]: 80; Pre-emergence activity, AVEFA (100=total damage to plant; 0=no damage to plant) (Avena fatua (AVEFA) [2]): 80; Pre-emergence activity, DIGSA (100=total damage to plant; 0=no damage to plant) [3]: 100; Pre-emergence activity, ECHCG (100=total damage to plant; 0=no damage to plant) [4]: 100; Pre-emergence activity, LOLPE (100=total damage to plant; 0=no damage to plant) (Lolium perenne (LOLPE) [5]): 100; Pre-emergence activity, SETFA (100=total damage to plant; 0=no damage to plant) (Setaria faberi (SETFA) [6]): 100; Post-emergence activity, ALOMY (100=total damage to plant; 0=no damage to plant) ([7]; rate 500 g/ha): 80; Post-emergence activity, AVEFA (100=total damage to plant; 0=no damage to plant) (Avena fatua (AVEFA) [8]; rate 500 g/ha): 60; Post-emergence activity, DIGSA (100=total damage to plant; 0=no damage to plant) ([9]; rate 500 g/ha): 100; Post-emergence activity, ECHCG (100=total damage to plant; 0=no damage to plant) ([10]; rate 500 g/ha): 100; Post-emergence activity, LOLPE (100=total damage to plant; 0=no damage to plant) (Lolium perenne (LOLPE) [11]; rate 500 g/ha): 90; Post-emergence activity, SETFA (100=total damage to plant; 0=no damage to plant) (Setaria faberi (SETFA) [12]; rate 500 g/ha): 100"
CCc1cc(C)cc(CC)c1C1=C(OC(=O)C(C)(C)C)CC2(CCCSC2)CC1=O (stereo not drawn) [Compound P59],20,10,100,50,10,70,40,0,80,30,20,60,,,,,,,
"CCc1cc(C)cc(CC)c1C1=C(O)CC(CC(C)S(=O)(=O)CC)CC1=O (stereo not drawn) [Compound T28, 2-(2,6-diethyl-4-methylphenyl)-5-[2-(ethylsulfonyl)propyl]cyclohexane-1,3-dione]",70,100,100,100,100,100,,,,,,,90,100,100,100,80,90,
